Assay results taken from paper PMC6198068, “Discovery of a Novel Nav1.7 Inhibitor From Cyriopagopus albostriatus Venom With Potent Analgesic Efficacy” (Frontiers in Pharmacology, 2018).
Read-outs that look alike come from different tables or passages of the source. Where a SMILES comes first, the peptide text is derived from it. Bridges are numbered along the chain shown (N, C = ends).

Key:
Nav1.7 [1] = biological target: T1, Nav1.7 (Homo sapiens, UniProt Q15858); assay: I–V relationships and voltage-dependent activation of Nav1.7; assay type: cell-based; details: 0.2 μM, n = 10
T1 construct: expressed in transfected cells; host or cells: HEK293T
T1 sequence (O60939 30-215): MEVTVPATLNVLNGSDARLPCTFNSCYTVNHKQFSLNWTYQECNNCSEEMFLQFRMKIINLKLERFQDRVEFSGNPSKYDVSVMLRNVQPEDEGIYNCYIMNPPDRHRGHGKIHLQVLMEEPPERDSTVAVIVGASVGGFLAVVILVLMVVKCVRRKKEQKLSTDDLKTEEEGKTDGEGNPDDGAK
T1 sequence (Q15858 other isoform, or with tags, fused parts or gaps): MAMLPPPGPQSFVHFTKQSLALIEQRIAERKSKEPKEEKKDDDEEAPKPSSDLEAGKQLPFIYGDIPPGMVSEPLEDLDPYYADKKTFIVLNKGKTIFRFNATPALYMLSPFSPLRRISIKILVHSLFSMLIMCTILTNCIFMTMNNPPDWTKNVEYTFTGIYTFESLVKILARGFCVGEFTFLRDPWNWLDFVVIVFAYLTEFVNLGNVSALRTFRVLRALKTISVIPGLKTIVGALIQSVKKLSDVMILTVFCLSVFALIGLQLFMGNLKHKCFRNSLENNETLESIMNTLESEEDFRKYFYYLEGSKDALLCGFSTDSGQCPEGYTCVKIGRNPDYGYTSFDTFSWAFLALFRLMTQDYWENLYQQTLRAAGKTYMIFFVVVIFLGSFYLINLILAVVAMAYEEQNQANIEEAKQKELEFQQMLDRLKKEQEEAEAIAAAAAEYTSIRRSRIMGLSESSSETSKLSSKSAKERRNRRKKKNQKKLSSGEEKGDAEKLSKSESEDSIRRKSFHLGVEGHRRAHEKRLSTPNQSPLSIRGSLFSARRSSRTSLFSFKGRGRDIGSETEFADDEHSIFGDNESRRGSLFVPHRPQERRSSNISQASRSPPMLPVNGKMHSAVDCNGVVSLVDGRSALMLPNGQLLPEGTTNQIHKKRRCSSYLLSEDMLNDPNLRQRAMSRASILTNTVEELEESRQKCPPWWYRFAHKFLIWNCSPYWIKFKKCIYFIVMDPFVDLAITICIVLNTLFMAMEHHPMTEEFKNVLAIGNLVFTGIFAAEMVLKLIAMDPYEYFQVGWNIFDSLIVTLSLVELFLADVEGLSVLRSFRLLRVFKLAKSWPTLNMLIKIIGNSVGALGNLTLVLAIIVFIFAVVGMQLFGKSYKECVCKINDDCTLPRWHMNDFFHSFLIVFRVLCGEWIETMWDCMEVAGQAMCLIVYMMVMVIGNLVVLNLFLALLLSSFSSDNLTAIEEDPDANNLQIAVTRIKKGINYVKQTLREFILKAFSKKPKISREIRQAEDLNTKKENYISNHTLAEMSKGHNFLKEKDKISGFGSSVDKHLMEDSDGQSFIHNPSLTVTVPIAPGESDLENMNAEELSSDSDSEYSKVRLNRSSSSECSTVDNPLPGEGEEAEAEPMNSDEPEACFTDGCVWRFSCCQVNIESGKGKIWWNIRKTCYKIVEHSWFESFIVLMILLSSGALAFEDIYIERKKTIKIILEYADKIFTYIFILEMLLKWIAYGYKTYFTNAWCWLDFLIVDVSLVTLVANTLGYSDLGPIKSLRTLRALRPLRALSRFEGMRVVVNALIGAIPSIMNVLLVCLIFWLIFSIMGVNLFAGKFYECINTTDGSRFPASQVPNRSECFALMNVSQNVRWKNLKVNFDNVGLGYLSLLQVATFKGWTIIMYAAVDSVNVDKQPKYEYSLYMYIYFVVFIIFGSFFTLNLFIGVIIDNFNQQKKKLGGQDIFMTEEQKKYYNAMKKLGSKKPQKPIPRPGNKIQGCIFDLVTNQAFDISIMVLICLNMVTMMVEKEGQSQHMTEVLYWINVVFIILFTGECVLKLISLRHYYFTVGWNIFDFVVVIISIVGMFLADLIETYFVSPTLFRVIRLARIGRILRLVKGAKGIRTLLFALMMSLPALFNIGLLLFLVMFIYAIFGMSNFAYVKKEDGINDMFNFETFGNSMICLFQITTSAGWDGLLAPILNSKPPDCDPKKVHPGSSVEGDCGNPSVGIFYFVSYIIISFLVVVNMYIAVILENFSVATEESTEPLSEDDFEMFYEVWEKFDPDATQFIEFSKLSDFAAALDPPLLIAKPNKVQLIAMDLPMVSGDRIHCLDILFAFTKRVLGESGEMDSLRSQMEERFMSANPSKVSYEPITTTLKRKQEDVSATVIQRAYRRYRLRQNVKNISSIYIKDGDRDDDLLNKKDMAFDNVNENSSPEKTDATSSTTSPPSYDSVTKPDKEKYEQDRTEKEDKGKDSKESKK
T1 sequence (Q07699 19-218, further chain): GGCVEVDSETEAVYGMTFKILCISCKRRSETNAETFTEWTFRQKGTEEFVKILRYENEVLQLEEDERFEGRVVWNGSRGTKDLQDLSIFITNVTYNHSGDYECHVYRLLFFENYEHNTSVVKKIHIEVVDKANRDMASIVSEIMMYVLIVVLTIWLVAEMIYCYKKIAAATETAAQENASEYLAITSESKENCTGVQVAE
Excerpt: (§1) The cDNA genes encoding rat Nav1.4 and human Nav1.7 were subcloned into vectors pRGB4 and pcDNA3.1-mod, respectively. Mutations of rNav1.4 (N655D, Q657E, and N655D/Q657E) and hNav1.7 (D816N, E818Q, and D816N/E818Q) were constructed using the Gene Tailor Site-Directed Mutagenesis system (Invitrogen, Carlsbad, CA, United States), according to the manufacturer’s instructions. Nav1.2–Nav1.7 and mutant plasmids together with eGFP were transiently transfected into HEK293T cells while Nav1.8 together with eGFP was transiently transfected into ND7/23 cells by Lipofectamine 2000 (Invitrogen, Carlsbad, CA, United States). Additionally, plasmids β1- and β2-eGFP encoding the human β1 and β2 subunits, respectively, were co-transfected with those encoding WT Nav1.7 and Nav1.7 mutations in HEK293T cells. […] Cells with green fluorescent protein fluorescence were selected for whole-cell patch-clamp recordings 24 h after transfection.
(§2) Whole-cell patch-clamp recordings were performed at room temperature (20–25°C) using an EPC 10 USB Patch Clamp Amplifier (HEKA, Elektronik, Lambrecht, Germany). […] Data was analyzed by software Igo Pro 6.10A (WaveMetrics, Lake Oswego, OR, United States), SigmaPlot 10.0 (Sigma-Aldrich, St. Louis, MO, United States), OriginPro 8 (OriginLab Corp., Northampton, MA, United States), and GraphPad Prism 5 (GraphPad Software, San Diego, CA, United States). […]

[2] = system: acetic acid-induced writhing in mice; assay type: in vivo, ICR mice; details: counted 30 min, control 27.3 ± 3.3, mean ± SEM, n = 6–8
Method: The ICR mice (18–22 g) used in this study were purchased from the Experimental Animal Center of SLac-kinda (Changsha, China). The animals were maintained at 20–25°C and freely allowed to standard rodent chow and water ad libitum. Ethical approval for in vivo experiments in animals was approved by the Animal Care and Use Committee (ACUC) at the Hunan Province Animal Management Office (HPAMO).
The abdominal writhing responses were counted for 30 min continuously.

Nav1.7 [3] = biological target: T1, Nav1.7; assay: Steady-state fast inactivation and fast inactivation time constants of Nav1.7; assay type: cell-based; details: 0.2 μM
Excerpt: as §1, with “States).” for “States). Additionally, plasmids β1- and β2-eGFP encoding the human β1 and β2 subunits, respectively, were co-transfected with those encoding WT Nav1.7 and Nav1.7 mutations in HEK293T cells.”
as §2
Fast inactivation time constants were calculated by fitting current decay traces with a single exponential function using the I–V protocol described above. […]

CC(C)C[C@H](NC(=O)[C@H](CC(=O)O)NC(=O)[C@H](Cc1ccc(O)cc1)NC(=O)[C@H](CCCCN)NC(=O)[C@@H]1CSSC[C@@H]2NC(=O)[C@H](CCCCN)NC(=O)[C@H](CC(=O)O)NC(=O)[C@H](CC(N)=O)NC(=O)[C@H](CO)NC(=O)[C@@H]3CCCN3C(=O)[C@H](CC(N)=O)NC(=O)[C@@H]3CSSC[C@H](NC(=O)[C@H](C(C)C)NC(=O)[C@H](CC(C)C)NC(=O)[C@H](CO)NC(=O)[C@H](CO)NC(=O)[C@H](CO)NC(=O)[C@H](CCCCN)NC(=O)[C@H](CSSC[C@H](NC(=O)[C@H](C)N)C(=O)N[C@@H](CC(C)C)C(=O)NCC(=O)N[C@@H](Cc4ccccc4)C(=O)NCC(=O)N[C@@H](CCC(=O)O)C(=O)N[C@@H](CCCCN)C(=O)N3)NC2=O)C(=O)N[C@@H](CO)C(=O)N[C@@H](CCC(N)=O)C(=O)N[C@@H](CCCCN)C(=O)N[C@@H](Cc2c[nH]cn2)C(=O)N[C@@H](CCCCN)C(=O)N[C@@H](Cc2c[nH]c3ccccc23)C(=O)N1)C(=O)O [Ca2a] (H-ACLGFGEKCNPSNDKCCKSSSLVCSQKHKWCKYDL-OH; disulfide 2-17, 9-24, 16-31 (inferred); N-terminus and C-terminus assumed)
half-activation voltage of Nav1.7 (Nav1.7 [1]; control −20.1 ± 1.1 mV, mean ± SEM): −18.9 ± 1.3 mV | threshold of initial activation voltage, active voltage of peak current, reversal potential of Nav1.7 (I–V) (Nav1.7 [1]): did not change | writhing numbers ([2]; 50 μg/kg i.p. 15 min prior to 0.8% acetic acid): 15.8 ± 2.4 | writhing numbers ([2]; 100 μg/kg i.p. 15 min prior to 0.8% acetic acid): 10.5 ± 2.8 | writhing numbers ([2]; 200 μg/kg i.p. 15 min prior to 0.8% acetic acid): 5.4 ± 2.2 | fast inactivation time constants of Nav1.7 (Nav1.7 [3]; between −15 and 10 mV, P > 0.05, two-way ANOVA, n = 6–11 cells): did not alter the inactivation time constants | half-inactivation voltage of Nav1.7 (steady-state fast inactivation) (Nav1.7 [3]; control −70.2 ± 0.8 mV, 500-ms prepulse, mean ± SEM, n = 10): −70.7 ± 1.1 mV
